Some test systems named below: TK-10; A549; 786-0; SN12C; RXF 393; EKVX; SW-620; M14; NCI-H226; SK-MEL-2; SNB-19; BT-549; A498; OVCAR-8; Hs-578T; U-251; NCI-H460; COLO 205; NCI/ADR-RES; MDA-MB-231.
Holding throughout (test): NCI tumour cell line growth inhibition, 48 h

Molecules are shown by their SMILES. Values joined by “and” are separate entries in the source; they are usually repeats but may differ in a detail not shown here. Equal entries are not always repeated.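 Briefly, cells in 96-well plates were exposed to five compound concentrations for 48 h, and endpoints were estimated by linear interpolation. GI50 = concentration required for 50% inhibition of growth.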 Active and inactive are the calls of the source. Rule as the data show it: active = GI50 up to about 1.1 µM and inactive = higher.

On to `CC[N+]1(C)CCC(O)(c2ccc(OC)cc2)C(C(=O)c2ccc(OC)cc2)C1` (stereo not given), for which the GI50 is 4.51 µM (inactive) in the experiment on TK-10; 19.9 µM (inactive) in the experiment with A549; 3.18 µM (inactive) in the experiment with 786-0; 18.2 µM (inactive) in the experiment with SN12C; 7 µM (inactive) in the experiment with RXF 393; 19.8 µM (inactive) with EKVX. Also, the GI50 in the experiment on SW-620 is 2.08 µM (inactive); in the experiment with M14, 8.69 µM (inactive); with NCI-H226 it was 18.7 µM (inactive); in the experiment on SK-MEL-2, 18.8 µM (inactive); in the experiment on SNB-19, 32.1 µM (inactive); with BT-549, 16 µM (inactive). For the same compound, the GI50 in the experiment on A498 was 17.6 µM (inactive); in the experiment with OVCAR-8 it was 21 µM (inactive); in the experiment on Hs-578T, 0.0368 µM (active); in the experiment with U-251, 1.54 µM (inactive); in the experiment with NCI-H460, 21.8 µM (inactive); in the experiment on COLO 205 it was 3.15 µM (inactive).

Regarding `COc1ccc(-c2nc(SC)n(C3OC(COC(C)=O)C(OC(C)=O)C(OC(C)=O)C3OC(C)=O)c(=O)c2C#N)cc1` (stereo not given), the GI50 with TK-10 is > 100 µM (inactive); with A549 it was 59 µM (inactive); in the experiment on 786-0, 64.3 µM (inactive); in the experiment on SN12C it was 39.7 µM (inactive); in the experiment on EKVX, > 100 µM (inactive); in the experiment with NCI/ADR-RES it was 79.8 µM (inactive). The GI50 with SW-620 is > 100 µM (inactive); with M14, 58.1 µM (inactive); in the experiment on NCI-H226, > 100 µM (inactive); in the experiment with SK-MEL-2, > 100 µM (inactive) and 73.3 µM (inactive); in the experiment on BT-549 it was > 100 µM (inactive); in the experiment with OVCAR-8, 79.3 µM (inactive). The GI50 is > 100 µM (inactive) in the experiment with MDA-MB-231; 34.9 µM (inactive) in the experiment on Hs-578T; 34.7 µM (inactive) and 39.5 µM (inactive) with U-251; > 100 µM (inactive) in the experiment with COLO 205.

For the compound `O=C(/C=C/c1ccc(OCc2ccccc2)c(OCc2ccccc2)c1)OCc1ccccc1`, the GI50 with TK-10, in the experiment on A549, with 786-0, with SN12C, with RXF 393 and with EKVX was > 100 µM (inactive) throughout. Moreover, the GI50 in the experiment with NCI/ADR-RES, in the experiment with SW-620, with M14, in the experiment on NCI-H226, in the experiment on SK-MEL-2 and in the experiment with SNB-19 was > 100 µM (inactive) in each case. The GI50 in the experiment on BT-549, in the experiment on A498, in the experiment with OVCAR-8, in the experiment with MDA-MB-231, with U-251 and in the experiment with NCI-H460 was > 100 µM (inactive) each time. The GI50 in the experiment on COLO 205 is > 100 µM (inactive).

Take `CN(C)c1ccc(C(N)=O)cn1`: the GI50 in the experiment on TK-10, in the experiment with A549, with 786-0, with SN12C, in the experiment on RXF 393 and in the experiment with EKVX was > 100 µM (inactive) in each case. The GI50 with NCI/ADR-RES, with SW-620, in the experiment with SK-MEL-2, in the experiment with SNB-19, with BT-549 and in the experiment on OVCAR-8 was > 100 µM (inactive) throughout. The GI50 in the experiment on MDA-MB-231, with Hs-578T, in the experiment with U-251, in the experiment on NCI-H460 and with COLO 205 was > 100 µM (inactive) throughout.

On to `c1ccc(C(NC2CCCCC2NCCNC2CCCCC2NC(c2ccccc2)(c2ccccc2)c2ccccc2)(c2ccccc2)c2ccccc2)cc1` (stereo not given), for which the GI50 in the experiment on TK-10 was 90.4 µM (inactive); in the experiment with A549, 64.1 µM (inactive); in the experiment with SN12C, > 100 µM (inactive); in the experiment with EKVX it was 87.9 µM (inactive); in the experiment with SW-620, 22.6 µM (inactive); in the experiment on SK-MEL-2 it was 26.1 µM (inactive). The GI50 is 74.6 µM (inactive) in the experiment on SNB-19; 17.5 µM (inactive) in the experiment with BT-549; 22.6 µM (inactive) with A498; 29.9 µM (inactive) in the experiment on OVCAR-8; > 100 µM (inactive) in the experiment on MDA-MB-231; 11.7 µM (inactive) in the experiment on Hs-578T. For the same compound, the values for the GI50 in the experiment on U-251, in the experiment on NCI-H460 and in the experiment with COLO 205 were 13.9 µM (inactive), 26.8 µM (inactive) and > 100 µM (inactive), respectively.

Regarding `COc1ccc(OC)c(C(=O)c2cccc(C(=O)c3cc(OC)ccc3OC)n2)c1`, the GI50 in the experiment on TK-10 was 35.5 µM (inactive); in the experiment with A549 it was 42.9 µM (inactive); in the experiment on 786-0, 68.9 µM (inactive); in the experiment with SN12C, 57.1 µM (inactive); in the experiment on RXF 393, 5.12 µM (inactive); with EKVX it was 41.1 µM (inactive). Besides, the GI50 is 29 µM (inactive) in the experiment on NCI/ADR-RES; 39.6 µM (inactive) with SW-620; 33.6 µM (inactive) in the experiment with M14; 27.3 µM (inactive) in the experiment with NCI-H226; 23 µM (inactive) in the experiment on SK-MEL-2; 43.3 µM (inactive) in the experiment with SNB-19. The GI50 is 22.9 µM (inactive) in the experiment on BT-549; 50.1 µM (inactive) in the experiment with OVCAR-8; 58.7 µM (inactive) in the experiment with MDA-MB-231; 27 µM (inactive) in the experiment with Hs-578T; 27.4 µM (inactive) in the experiment on U-251; 36.3 µM (inactive) in the experiment with NCI-H460. In addition, the GI50 in the experiment with COLO 205 is 32.1 µM (inactive).

In the case of `CC1(C)OC[C@@H]([C@@]2(COC(c3ccccc3)(c3ccccc3)c3ccccc3)CC=CC(=O)O2)O1`, the GI50 in the experiment with TK-10 is 46.5 µM (inactive); in the experiment with A549 it was 40.7 µM (inactive); in the experiment on 786-0, 35.1 µM (inactive); in the experiment on SN12C, 30.8 µM (inactive); with RXF 393, 24.2 µM (inactive); with EKVX it was 30.9 µM (inactive). Moreover, the GI50 in the experiment with SW-620 is 40.1 µM (inactive); in the experiment with M14, 39.7 µM (inactive); in the experiment with NCI-H226, 32.7 µM (inactive); with SK-MEL-2, 11.2 µM (inactive); in the experiment on SNB-19 it was 58.3 µM (inactive); in the experiment with BT-549 it was 24.2 µM (inactive). Moreover, the GI50 is 22 µM (inactive) with A498; 33.6 µM (inactive) with OVCAR-8; 41.7 µM (inactive) in the experiment on MDA-MB-231; 46.9 µM (inactive) in the experiment on Hs-578T; 48.9 µM (inactive) in the experiment with U-251; 32.1 µM (inactive) in the experiment on NCI-H460. In addition, the GI50 in the experiment on COLO 205 was 20.1 µM (inactive).

Consider `N#C/C(=C\c1ccc(F)cc1)c1nc(-c2cc3ccccc3oc2=O)cs1`, for which the GI50 in the experiment with TK-10 is 16.4 µM (inactive); with A549, 55.5 µM (inactive); in the experiment on 786-0 it was 14.8 µM (inactive); in the experiment on SN12C, 74 µM (inactive); in the experiment with RXF 393, 18.6 µM (inactive); in the experiment with EKVX it was 30.8 µM (inactive). The GI50 in the experiment on NCI/ADR-RES was 30.9 µM (inactive); in the experiment with SW-620 it was 40.4 µM (inactive); with M14, 13.8 µM (inactive); in the experiment on NCI-H226 it was 28.7 µM (inactive); in the experiment with SK-MEL-2, 30.3 µM (inactive); in the experiment with SNB-19, 11.8 µM (inactive). Further, the GI50 with BT-549 is 12.3 µM (inactive); in the experiment with OVCAR-8, 21.3 µM (inactive); in the experiment with MDA-MB-231, 12.7 µM (inactive); with Hs-578T, 15.1 µM (inactive); with U-251, 14.6 µM (inactive); in the experiment with NCI-H460, 33.5 µM (inactive). In addition, in the experiment with COLO 205, the GI50 is > 100 µM (inactive).

Turning to `CCOC(=O)C(=[N+]=[N-])C(=O)CN1C(=O)C2CC(C)=C(C)CC2C1O` (stereo not given), the GI50 in the experiment with TK-10, with A549, in the experiment on 786-0, with RXF 393, in the experiment on EKVX and with NCI/ADR-RES was > 100 µM (inactive) in each case. In addition, the GI50 with SW-620 is > 100 µM (inactive); with M14 it was > 100 µM (inactive); in the experiment with NCI-H226, 68.2 µM (inactive); in the experiment with SK-MEL-2, > 100 µM (inactive); in the experiment on SNB-19 it was > 100 µM (inactive); in the experiment with BT-549 it was > 100 µM (inactive). In addition, the GI50 in the experiment on OVCAR-8, with Hs-578T, with U-251, in the experiment with NCI-H460 and in the experiment on COLO 205 was > 100 µM (inactive) throughout.

Consider `Cc1cc(N(C)C)ccc1/N=N/c1ccc2ncccc2c1`, for which the GI50 was 25.6 µM (inactive) in the experiment with TK-10; > 100 µM (inactive) in the experiment on A549; > 100 µM (inactive) with 786-0; > 100 µM (inactive) in the experiment on SN12C; > 100 µM (inactive) with RXF 393; 23.6 µM (inactive) with EKVX. In addition, the GI50 in the experiment on NCI/ADR-RES was > 100 µM (inactive); with SW-620 it was > 100 µM (inactive); with M14, > 100 µM (inactive); in the experiment with NCI-H226, 31.8 µM (inactive); with SK-MEL-2, > 100 µM (inactive); in the experiment with SNB-19, 28.9 µM (inactive). Moreover, the GI50 in the experiment on BT-549 was 35.2 µM (inactive); with OVCAR-8, > 100 µM (inactive); in the experiment with MDA-MB-231, 84.1 µM (inactive); in the experiment with Hs-578T, 30.6 µM (inactive); in the experiment on U-251 it was > 100 µM (inactive); in the experiment with NCI-H460, 27.4 µM (inactive). For the same compound, the GI50 in the experiment on COLO 205 was 33.9 µM (inactive).

`C=C1CCC([N+](=O)[O-])[C@](C)(N=O)CC[C@@H]2C1CC2(C)C` (stereo not given in full): the GI50 in the experiment on TK-10 is 28.6 µM (inactive); in the experiment with A549, 18.5 µM (inactive); with 786-0 it was 20.6 µM (inactive); in the experiment with SN12C, 32.4 µM (inactive); with EKVX, 19 µM (inactive); with NCI/ADR-RES, 22.8 µM (inactive). The GI50 with SW-620 is 16.9 µM (inactive); with M14, 27.4 µM (inactive); in the experiment with NCI-H226, 16 µM (inactive); with SK-MEL-2, > 10 µM (inactive); in the experiment with SNB-19, 27.3 µM (inactive); in the experiment with BT-549, 14.4 µM (inactive). The GI50 with OVCAR-8 was 22.3 µM (inactive); in the experiment on Hs-578T, 17.6 µM (inactive); in the experiment on U-251, 21.4 µM (inactive); with NCI-H460, 19.1 µM (inactive); with COLO 205 it was 28.1 µM (inactive).
